# In patent US8580733B2, “Site-specific monoconjugated insulinotropic GLP-1 peptides” (Bio-Ker SRL, priority 2008, dated 2013):
# Ends that are not written are not given here.
# Tests used:
# [1] = biological target: T1, DPP-IV (Dipeptidyl peptidase IV from porcine kidney) (Sus scrofa, UniProt P22411); assay: In vitro stability to DPP-IV digestion; assay type: in vitro ADME; conditions: for Degradation % at 24 h: peptide 0.1 mg/ml in PBS
# T1 construct: purchased Sigma; host or cells: porcine kidney (tissue-derived)
# T1 sequence (P22411 whole entry): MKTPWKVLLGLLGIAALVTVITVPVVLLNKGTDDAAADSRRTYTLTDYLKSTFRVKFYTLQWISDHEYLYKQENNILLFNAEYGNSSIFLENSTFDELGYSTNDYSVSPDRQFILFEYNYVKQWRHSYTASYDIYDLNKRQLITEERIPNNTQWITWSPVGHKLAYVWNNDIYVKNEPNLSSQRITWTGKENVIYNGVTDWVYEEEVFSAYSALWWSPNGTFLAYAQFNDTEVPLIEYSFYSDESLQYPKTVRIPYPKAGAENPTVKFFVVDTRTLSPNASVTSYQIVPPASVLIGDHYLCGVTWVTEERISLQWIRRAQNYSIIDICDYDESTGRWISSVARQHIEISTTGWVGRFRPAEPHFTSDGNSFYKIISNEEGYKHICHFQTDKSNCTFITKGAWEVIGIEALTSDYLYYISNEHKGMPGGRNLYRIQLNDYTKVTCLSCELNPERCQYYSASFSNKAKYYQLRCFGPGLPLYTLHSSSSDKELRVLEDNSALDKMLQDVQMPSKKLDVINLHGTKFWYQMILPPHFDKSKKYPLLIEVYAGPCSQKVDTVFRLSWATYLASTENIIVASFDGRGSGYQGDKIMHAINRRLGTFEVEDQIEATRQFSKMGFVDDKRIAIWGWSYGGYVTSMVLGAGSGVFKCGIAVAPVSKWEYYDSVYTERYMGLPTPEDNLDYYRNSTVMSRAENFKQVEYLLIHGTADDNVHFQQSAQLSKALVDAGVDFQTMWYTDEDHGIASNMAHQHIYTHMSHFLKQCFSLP
# Description: The enzymatic degradation was calculated from His-Ala title of each sample, as shown for example in FIG. 1
# diabetic (db/db) mice = assay: Oral glucose tolerance test in diabetic mice; assay type: in vivo; conditions: for Tglu<100 mg/dl (time to lower the blood glucose level under 100 (±5) mg/dl) / Glumax (maximum blood glucose level) / HD% control (total hypoglycemic degree as percent of saline control): 100 μg/kg 30 min before oral glucose […]; for Glumax (maximum blood glucose level): first 180 min; for HD% control (total hypoglycemic degree as percent of saline control): AUC 0-180 min vs saline
# Description: Food was withdrawn for an 18-h period prior to and for 3 hours after oral administration of a glucose solution (1.5 g/kg body weight); food was again […] 6 hours after glucose administration. 40 μg/ml of products to be tested and negative control (phosphate buffered saline) were administered by subcutaneous injection of a volume of 2.5 ml/kg body weight, 30 minutes prior glucose administration. Blood samples were collected from the tail vein of conscious mice before the injection and at 15, 30, 60, 120, 180, 240, 300, 1440 min post injection and glucose concentration was measured by gluco tester Ascensia Elite (Bayer).
Molecule,"Degradation % at 24 h ([1]; DPP-IV 5 U/ml, 37° C.)","Degradation % (at 8 h) ([1]; DPP-IV 5 U/ml, 37° C., at 8 h)","inactivation by cleavage of the N-terminal dipeptide ([1]; DPP-IV, after 8 hours at 37° C.)",final biological efficacy compared with exenatide (diabetic (db/db) mice),Tglu<100 mg/dl (time to lower the blood glucose level under 100 (±5) mg/dl) (diabetic (db/db) mice),Glumax (maximum blood glucose level) (diabetic (db/db) mice),HD% control (total hypoglycemic degree as percent of saline control) (diabetic (db/db) mice)
"GLP-1-amide-Q17N/A24Q-PEG 20 kDa: Q17N/A24Q-GLP-1-amide monopegylated on glutamine 24 with 20 kDa m-PEG-amine by microbial transglutaminase (HAEGTFTSDVSSYLEGNAAKEFIQ(PEG 20 kDa)WLVKGRG-NH2; UniProt P01275 98-128, looked up, variant Q17N A24Q)",41%,–,–,–,–,–,–
HAEGTFTSDVSSYLEGNAAKEFIQWLVKGR-NH2 [GLP-1-amide-Q17N/A24Q],90%,–,–,–,–,–,–
"CC[C@H](C)[C@H](NC(=O)[C@H](Cc1ccccc1)NC(=O)[C@H](CCC(=O)O)NC(=O)[C@H](CCCCN)NC(=O)[C@H](C)NC(=O)[C@H](C)NC(=O)[C@H](CCC(N)=O)NC(=O)CNC(=O)[C@H](CCC(=O)O)NC(=O)[C@H](CC(C)C)NC(=O)[C@H](Cc1ccc(O)cc1)NC(=O)[C@H](CO)NC(=O)[C@H](CO)NC(=O)[C@@H](NC(=O)[C@H](CC(=O)O)NC(=O)[C@H](CO)NC(=O)[C@@H](NC(=O)[C@H](Cc1ccccc1)NC(=O)[C@@H](NC(=O)CNC(=O)[C@H](CCC(=O)O)NC(=O)[C@H](C)NC(=O)[C@@H](N)Cc1c[nH]cn1)[C@@H](C)O)[C@@H](C)O)C(C)C)C(=O)N[C@@H](C)C(=O)N[C@@H](Cc1c[nH]c2ccccc12)C(=O)N[C@@H](CC(C)C)C(=O)N[C@H](C(=O)N[C@@H](CCCCN)C(=O)NCC(=O)N[C@@H](CCCNC(=N)N)C(N)=O)C(C)C [GLP-1-amide, GLP-1(7-36)-amide, reference compound]",–,100 (at 8 h) %,completely inactivated,–,–,–,–
GLP-1-amide-Q17-PEG 30 kDa: GLP-1-amide monopegylated on glutamine 17 with 30 kDa m-PEG-amine by microbial transglutaminase,25%,–,–,comparable or better than the one displayed by exenatide,60 min,167.7 mg/dL,63.5%
GLP-1-amide-Q17-PEG 20 kDa: GLP-1-amide monopegylated on glutamine 17 with 20 kDa m-PEG-amine by microbial transglutaminase,37%,–,–,comparable or better than the one displayed by exenatide,60 min,213.9 mg/dL,58.3%
